Measurements published in ChEMBL document CHEMBL2074199, “The MRP4/ABCC4 gene encodes a novel apical organic anion transporter in human kidney proximal tubules: putative efflux pump for urinary cAMP and cGMP” (J Am Soc Nephrol, 2002).

Assays:
Type in all cases: functional, cell membranes, Membrane vesicle
[1] = molecular target: T1, ATP-binding cassette sub-family C member 4 (Homo sapiens, UniProt O15439); assay: TP_TRANSPORTER: inhibition of cGMP uptake ([…]: 1 uM, Dipyridamole: 1 uM) in membrane vesicles from MRP4-expressing Sf9 cells; set-up: scale not given: the % may be the effect or the level left; conditions: sf9, 1 µM
T1 sequence (O15439 whole entry): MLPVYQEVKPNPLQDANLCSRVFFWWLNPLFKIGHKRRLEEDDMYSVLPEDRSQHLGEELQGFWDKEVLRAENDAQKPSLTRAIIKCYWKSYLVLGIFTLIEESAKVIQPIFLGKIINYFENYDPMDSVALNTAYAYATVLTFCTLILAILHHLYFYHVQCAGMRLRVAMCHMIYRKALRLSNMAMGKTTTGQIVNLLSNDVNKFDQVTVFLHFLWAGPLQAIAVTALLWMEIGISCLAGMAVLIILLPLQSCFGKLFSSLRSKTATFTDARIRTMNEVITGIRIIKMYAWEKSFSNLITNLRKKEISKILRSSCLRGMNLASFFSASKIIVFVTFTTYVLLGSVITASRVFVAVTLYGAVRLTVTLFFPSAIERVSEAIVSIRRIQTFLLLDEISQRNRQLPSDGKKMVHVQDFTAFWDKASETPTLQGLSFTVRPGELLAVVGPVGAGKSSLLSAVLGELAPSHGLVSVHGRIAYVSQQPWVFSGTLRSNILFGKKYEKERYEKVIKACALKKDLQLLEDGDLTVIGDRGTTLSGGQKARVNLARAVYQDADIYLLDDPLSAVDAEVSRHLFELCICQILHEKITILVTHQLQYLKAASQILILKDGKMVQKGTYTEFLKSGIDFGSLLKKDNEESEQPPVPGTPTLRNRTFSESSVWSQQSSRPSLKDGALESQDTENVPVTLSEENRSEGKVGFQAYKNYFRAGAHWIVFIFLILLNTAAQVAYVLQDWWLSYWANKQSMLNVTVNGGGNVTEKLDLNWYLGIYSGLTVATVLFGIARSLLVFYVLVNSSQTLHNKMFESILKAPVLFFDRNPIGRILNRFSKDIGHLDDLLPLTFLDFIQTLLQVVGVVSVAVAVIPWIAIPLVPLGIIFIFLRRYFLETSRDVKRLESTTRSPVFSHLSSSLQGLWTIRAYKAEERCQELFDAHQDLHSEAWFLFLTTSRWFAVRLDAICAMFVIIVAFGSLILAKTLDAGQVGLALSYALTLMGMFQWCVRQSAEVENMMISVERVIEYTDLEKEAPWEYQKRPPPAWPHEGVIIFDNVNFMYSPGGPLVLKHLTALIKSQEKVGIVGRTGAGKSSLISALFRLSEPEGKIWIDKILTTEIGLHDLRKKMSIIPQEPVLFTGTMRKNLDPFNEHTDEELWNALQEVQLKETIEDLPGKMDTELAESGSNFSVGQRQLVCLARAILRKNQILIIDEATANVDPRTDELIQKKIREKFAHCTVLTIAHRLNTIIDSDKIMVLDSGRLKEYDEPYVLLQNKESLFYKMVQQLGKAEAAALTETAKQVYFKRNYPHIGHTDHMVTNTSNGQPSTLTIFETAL

[2] = molecular target: T2, MRP4 (ABCC4) (Homo sapiens, UniProt O15439); assay: TP_TRANSPORTER: inhibition of MTX uptake (MTX: 0.1 uM, NAc-DNP-Cys: 100 uM) in membrane vesicles from MRP4-expressing Sf9 cells; set-up: scale not given: the % may be the effect or the level left; conditions: probe methotrexate 0.1 uM, read-out: Activity
T2 sequence (O15439 whole entry): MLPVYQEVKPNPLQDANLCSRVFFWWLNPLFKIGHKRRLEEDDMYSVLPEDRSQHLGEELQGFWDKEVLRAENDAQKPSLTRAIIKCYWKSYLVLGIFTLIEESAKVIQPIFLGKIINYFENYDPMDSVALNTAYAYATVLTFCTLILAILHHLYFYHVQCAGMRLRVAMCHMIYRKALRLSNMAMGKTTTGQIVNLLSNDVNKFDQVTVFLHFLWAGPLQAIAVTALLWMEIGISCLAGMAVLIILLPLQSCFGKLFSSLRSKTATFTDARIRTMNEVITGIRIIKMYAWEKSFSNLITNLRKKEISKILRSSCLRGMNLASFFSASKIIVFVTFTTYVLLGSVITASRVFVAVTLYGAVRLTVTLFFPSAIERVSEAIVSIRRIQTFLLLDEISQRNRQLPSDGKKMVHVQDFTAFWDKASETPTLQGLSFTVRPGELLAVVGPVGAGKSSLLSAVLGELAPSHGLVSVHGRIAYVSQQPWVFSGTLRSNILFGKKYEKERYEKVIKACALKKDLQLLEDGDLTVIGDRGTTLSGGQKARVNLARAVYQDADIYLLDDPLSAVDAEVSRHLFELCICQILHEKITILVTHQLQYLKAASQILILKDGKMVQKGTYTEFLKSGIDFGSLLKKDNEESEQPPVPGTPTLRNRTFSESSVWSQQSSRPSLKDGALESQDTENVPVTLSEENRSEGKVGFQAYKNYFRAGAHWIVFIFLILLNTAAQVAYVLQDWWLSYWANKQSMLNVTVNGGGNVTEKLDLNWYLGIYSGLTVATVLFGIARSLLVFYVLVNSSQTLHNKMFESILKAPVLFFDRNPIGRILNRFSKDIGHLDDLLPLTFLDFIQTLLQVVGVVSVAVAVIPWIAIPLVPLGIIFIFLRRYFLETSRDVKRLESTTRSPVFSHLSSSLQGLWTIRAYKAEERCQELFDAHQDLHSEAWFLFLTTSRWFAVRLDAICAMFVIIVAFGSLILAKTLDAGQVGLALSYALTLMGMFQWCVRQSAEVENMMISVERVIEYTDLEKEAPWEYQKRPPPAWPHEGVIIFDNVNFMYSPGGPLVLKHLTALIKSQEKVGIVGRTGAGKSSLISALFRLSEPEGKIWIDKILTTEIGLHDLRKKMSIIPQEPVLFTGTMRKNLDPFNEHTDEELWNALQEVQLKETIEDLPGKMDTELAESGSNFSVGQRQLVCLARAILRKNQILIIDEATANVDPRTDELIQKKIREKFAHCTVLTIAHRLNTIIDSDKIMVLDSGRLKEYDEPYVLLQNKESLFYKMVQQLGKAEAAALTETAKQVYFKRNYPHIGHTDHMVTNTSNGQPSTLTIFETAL

[3] = molecular target: T2, MRP4 (ABCC4); assay: TP_TRANSPORTER: inhibition of Methotrexate uptake (MTX: 0.1 uM, alpha-naphthyl beta-D-glucuronide: 1000 uM) in membrane vesicles from MRP4-expressing Sf9 cells; set-up: scale not given: the % may be the effect or the level left; conditions: probe methotrexate 0.1 uM, read-out: Activity
[4] = molecular target: T2, MRP4 (ABCC4); assay: TP_TRANSPORTER: inhibition of MTX uptake (MTX: 0.1 uM, E217betaG: 100 uM) in membrane vesicles from MRP4-expressing Sf9 cells; set-up: scale not given: the % may be the effect or the level left; conditions: probe methotrexate 0.1 uM, read-out: Activity
[5] = molecular target: T2, MRP4 (ABCC4); assay: TP_TRANSPORTER: inhibition of MTX uptake (MTX: 0.1 uM, p-Nitropenyl-beta-D-glucuronide: 1000 uM) in membrane vesicles from MRP4-expressing Sf9 cells; set-up: scale not given: the % may be the effect or the level left; conditions: probe methotrexate 0.1 uM, read-out: Activity
[6] = molecular target: T2, MRP4 (ABCC4); assay: TP_TRANSPORTER: inhibition of Methotrexate uptake (MTX: 0.1 uM, DNP-SG: 100 uM) in membrane vesicles from MRP4-expressing Sf9 cells; set-up: scale not given: the % may be the effect or the level left; conditions: probe methotrexate 0.1 uM, read-out: Activity
[7] = molecular target: T1, ATP-binding cassette sub-family C member 4; assay: TP_TRANSPORTER: inhibition of cGMP uptake ([…]: 1 uM, Probenecid: 1000 uM) in membrane vesicles from MRP4-expressing Sf9 cells; set-up: scale not given: the % may be the effect or the level left; conditions: sf9, 1000 µM
[8] = substrate: CN(Cc1cnc2nc(N)nc(N)c2n1)c1ccc(C(=O)N[C@@H](CCC(=O)O)C(=O)O)cc1; assay: TP_TRANSPORTER: uptake in membrane vesicles from MRP4-expressing Sf9 cells

OCCN(CCO)c1nc(N2CCCCC2)c2nc(N(CCO)CCO)nc(N3CCCCC3)c2n1 [DIPYRIDAMOLE]
Activity [1]: 9%

CC(=O)N[C@@H](CSc1ccc([N+](=O)[O-])cc1[N+](=O)[O-])C(=O)O
activity at 100 µM [2]: 29%

O=C(O)[C@H]1O[C@@H](Oc2cccc3ccccc23)[C@H](O)[C@@H](O)[C@@H]1O
activity at 1000 µM [3]: 18%

C[C@]12CC[C@@H]3c4ccc(O)cc4CC[C@H]3[C@@H]1CC[C@@H]2O[C@@H]1O[C@H](C(=O)O)[C@@H](O)[C@H](O)[C@H]1O [ESTRADIOL 17B GLUCURONIDE]
activity at 100 µM [4]: 75%

O=C(O)[C@H]1O[C@@H](Oc2ccc([N+](=O)[O-])cc2)[C@H](O)[C@@H](O)[C@@H]1O
activity at 1000 µM [5]: 25%

N[C@@H](CCC(=O)N[C@H](CSc1ccc([N+](=O)[O-])cc1[N+](=O)[O-])C(=O)NCC(=O)O)C(=O)O
activity at 100 µM [6]: 3%

CCCN(CCC)S(=O)(=O)c1ccc(C(=O)O)cc1 [PROBENECID]
Activity [7]: 10%

B1: ATP-binding cassette sub-family C member 4 (Homo sapiens) (protein)
chain: MLPVYQEVKPNPLQDANLCSRVFFWWLNPLFKIGHKRRLEEDDMYSVLPEDRSQHLGEELQGFWDKEVLRAENDAQKPSLTRAIIKCYWKSYLVLGIFTLIEESAKVIQPIFLGKIINYFENYDPMDSVALNTAYAYATVLTFCTLILAILHHLYFYHVQCAGMRLRVAMCHMIYRKALRLSNMAMGKTTTGQIVNLLSNDVNKFDQVTVFLHFLWAGPLQAIAVTALLWMEIGISCLAGMAVLIILLPLQSCFGKLFSSLRSKTATFTDARIRTMNEVITGIRIIKMYAWEKSFSNLITNLRKKEISKILRSSCLRGMNLASFFSASKIIVFVTFTTYVLLGSVITASRVFVAVTLYGAVRLTVTLFFPSAIERVSEAIVSIRRIQTFLLLDEISQRNRQLPSDGKKMVHVQDFTAFWDKASETPTLQGLSFTVRPGELLAVVGPVGAGKSSLLSAVLGELAPSHGLVSVHGRIAYVSQQPWVFSGTLRSNILFGKKYEKERYEKVIKACALKKDLQLLEDGDLTVIGDRGTTLSGGQKARVNLARAVYQDADIYLLDDPLSAVDAEVSRHLFELCICQILHEKITILVTHQLQYLKAASQILILKDGKMVQKGTYTEFLKSGIDFGSLLKKDNEESEQPPVPGTPTLRNRTFSESSVWSQQSSRPSLKDGALESQDTENVPVTLSEENRSEGKVGFQAYKNYFRAGAHWIVFIFLILLNTAAQVAYVLQDWWLSYWANKQSMLNVTVNGGGNVTEKLDLNWYLGIYSGLTVATVLFGIARSLLVFYVLVNSSQTLHNKMFESILKAPVLFFDRNPIGRILNRFSKDIGHLDDLLPLTFLDFIQTLLQVVGVVSVAVAVIPWIAIPLVPLGIIFIFLRRYFLETSRDVKRLESTTRSPVFSHLSSSLQGLWTIRAYKAEERCQELFDAHQDLHSEAWFLFLTTSRWFAVRLDAICAMFVIIVAFGSLILAKTLDAGQVGLALSYALTLMGMFQWCVRQSAEVENMMISVERVIEYTDLEKEAPWEYQKRPPPAWPHEGVIIFDNVNFMYSPGGPLVLKHLTALIKSQEKVGIVGRTGAGKSSLISALFRLSEPEGKIWIDKILTTEIGLHDLRKKMSIIPQEPVLFTGTMRKNLDPFNEHTDEELWNALQEVQLKETIEDLPGKMDTELAESGSNFSVGQRQLVCLARAILRKNQILIIDEATANVDPRTDELIQKKIREKFAHCTVLTIAHRLNTIIDSDKIMVLDSGRLKEYDEPYVLLQNKESLFYKMVQQLGKAEAAALTETAKQVYFKRNYPHIGHTDHMVTNTSNGQPSTLTIFETAL
Km [8]: 1300 µM
